Laboratory results reported in ChEMBL document CHEMBL6115029, “Discovery of Daraxonrasib (RMC-6236), a Potent and Orally Bioavailable RAS(ON) Multi-selective, Noncovalent Tri-complex Inhibitor for the Treatment of Patients with Multiple RAS-Addicted Cancers” (J Med Chem, 2025).
Converted amounts (≈) assume the structure as drawn.

Tests used:
A-375 = experiment: Cytotoxicity against human A-375 cells assessed as reduction in cell viability incubated for 120 hrs by CellTiter-Glo luminescence assay; format: functional, cell-based; conditions: A-375, 120 h
[1] = Metabolic stability in mouse liver microsomes assessed as half-life at 2 uM measured upto 60 mins in presence of NADPH by LC-MS/MS analysis; format: ADME, Microsome
[2] = Oral bioavailability in female BALB/c mouse at 10 mg/kg measured after 24 hrs by LC-MS/MS analysis; format: ADME, organism-based; conditions: in vivo
ASPC1 = experiment: Cytotoxicity against human ASPC1 cells harboring KRAS G12D mutant cultured as 2D cells assessed as reduction in cell viability incubated for 120 hrs by CellTiter-Glo luminescence assay; format: functional, cell-based; conditions: ASPC1, 120 h
[3] = Inhibition of 6His-tagged KRAS G12D mutant(1 to 169 residues)/GST-tagged GMPPNP-bound BRAF RBD (155 to 229 reisudes)/Cyclophilin A (unknown origin) tri-complex protein-protein interaction incubated for 3 hrs by TR-FERT based disruption assay; design: species or system Homo sapiens
[4] = Inhibition of ERK1/2 phosphorylation in human NCI-H358 cells harboring KRAS G12C mutant incubated for 4 hrs by AlphaLISA assay; format: cell-based; conditions: NCI-H358, 4 h
[5] = Inhibition of ERK1/2 phosphorylation in human CAPAN-1 cells harboring KRAS G12V mutant incubated for 4 hrs by AlphaLISA assay; format: cell-based; conditions: CAPAN-1, 4 h
NCI-H358 = experiment: Cytotoxicity against human NCI-H358 cells harboring KRAS G12C mutant cultured as 2D cells assessed as reduction in cell viability incubated for 120 hrs by CellTiter-Glo luminescence assay; format: functional, cell-based; conditions: NCI-H358, 120 h
[6] = Efflux ratio of apparent permeability in human Caco-2 cells at 5 uM incubated for 2 hrs by LC-MS/MS analysis; format: ADME, cell-based
[7] = Inhibition of 6His-tagged KRAS G12C mutant(1 to 169 residues)/GST-tagged GMPPNP-bound BRAF RBD (155 to 229 reisudes)/Cyclophilin A (unknown origin) tri-complex protein-protein interaction incubated for 3 hrs by TR-FERT based disruption assay; design: species or system Homo sapiens
[8] = Clearance in female BALB/c mouse at 1 mg/kg, iv measured after 24 hrs by LC-MS/MS analysis; format: ADME, organism-based; conditions: in vivo
[9] = molecular target: Peptidyl-prolyl cis-trans isomerase A (Homo sapiens, UniProt P62937); experiment: Binding affinity to Avi-tagged Cyclophilin A (unknown origin) assessed as dissociation constant by SPR analysis
Sequence of Peptidyl-prolyl cis-trans isomerase A (P62937 whole entry): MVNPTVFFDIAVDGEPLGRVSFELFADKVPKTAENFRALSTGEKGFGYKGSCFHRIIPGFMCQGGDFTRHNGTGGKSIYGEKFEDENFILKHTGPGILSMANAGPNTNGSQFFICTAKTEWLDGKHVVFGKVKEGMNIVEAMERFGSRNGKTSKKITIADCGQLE

[10] = Half-life in female BALB/c mouse at 1 mg/kg, iv measured after 24 hrs by LC-MS/MS analysis; format: ADME, organism-based; conditions: in vivo
[11] = Inhibition of 6His-tagged wildtype KRAS (1 to 169 residues)/GST-tagged GMPPNP-bound BRAF RBD (155 to 229 reisudes)/Cyclophilin A (unknown origin) tri-complex protein-protein interaction incubated for 3 hrs by TR-FERT based disruption assay; design: species or system Homo sapiens
[12] = Kinetic solubility of compound in PBS at pH 7.4 measured after 5 hrs by UV analysis; format: physicochemical; conditions: read-out: Kinetic_solubility
CAPAN-1 = experiment: Cytotoxicity against human CAPAN-1 cells harboring KRAS G12V mutant cultured as 2D cells assessed as reduction in cell viability incubated for 120 hrs by CellTiter-Glo luminescence assay; format: functional, cell-based; conditions: CAPAN-1, 120 h
[13] = Inhibition of 6His-tagged KRAS G12V mutant(1 to 169 residues)/GST-tagged GMPPNP-bound BRAF RBD (155 to 229 reisudes)/Cyclophilin A (unknown origin) tri-complex protein-protein interaction incubated for 3 hrs by TR-FERT based disruption assay; design: species or system Homo sapiens
[14] = Lipophilicity, logD of compound at pH 7.4 by Agilent 1290 II uPLC analysis; format: physicochemical; conditions: buffer
[15] = Inhibition of ERK1/2 phosphorylation in human ASPC1 cells harboring KRAS G12D mutant incubated for 4 hrs by AlphaLISA assay; format: cell-based; conditions: ASPC1, 4 h
NCI-H1975 = experiment: Cytotoxicity against human NCI-H1975 cells harboring wildtype KRAS cultured as 2D cells assessed as reduction in cell viability incubated for 120 hrs by CellTiter-Glo luminescence assay; format: functional, cell-based; conditions: NCI-H1975, 120 h
[16] = Apparent permeability across apical to basolateral side in human Caco-2 cells at 5 uM incubated for 2 hrs by LC-MS/MS analysis; format: ADME, cell-based

| SMILES | EC50 (A-375) [nM] | half-life at 2 µM [1] [min] | bioavailability [2] [%] | EC50 (ASPC1) [nM] | IC50 [3] [nM] | EC50 [4] [nM] | EC50 [5] [nM] | EC50 (NCI-H358) [nM] | efflux ratio at 2 h, 5 µM [6] | IC50 [7] [nM] | clearance [8] [mL/min/kg] | Kd [9] [nM] | half-life [10] [min] | IC50 [11] [nM] | solubility kinetic at 5 h [12] [µM] | EC50 (CAPAN-1) [nM] | IC50 [13] [nM] | EC50 [15] [nM] | EC50 (NCI-H1975) [nM] | Papp A→B at 2 h, 5 µM [16] [×10⁻⁶ cm/s] | also measured |
| --- | --- | --- | --- | --- | --- | --- | --- | --- | --- | --- | --- | --- | --- | --- | --- | --- | --- | --- | --- | --- | --- |
| CCn1c(-c2cccnc2[C@H](C)OC)c2c3cc(ccc31)-c1csc(n1)C[C@H](NC(=O)[C@H]1CCO1)C(=O)N1CCC[C@H](N1)C(=O)OCC(C)(C)C2 | > 10000 | 44 | 44 | 1640 | 2310 | 952 | 124 | 429 | 1.7 | 224 | 3.33 | 6520 | 96 | 628 | 5 (≈ 3.57 µg/mL) | 615 | 334 | > 10000 | 402 | 3.1 | logD [14]: 4.3 |
| CCn1c(-c2cccnc2[C@H](C)OC)c2c3cc(ccc31)-c1csc(n1)C[C@H](NC(=O)[C@H](C(C)C)N(C)C(=O)N1CCC1)C(=O)N1CCC[C@H](N1)C(=O)OCC(C)(C)C2 | 4400 | 9 | 2.2 | – | 491 | 1 | 2 | 7 | 13.6 | 35 | 65 | 293 | 48 | 107 | < 2 | 11 | – | 22 | 28 | 0.09 | IC50 (ASPC1): 37 nM |
| CCn1c(-c2cc(N3CCN(C)CC3)cnc2[C@H](C)OC)c2c3cc(ccc31)-c1csc(n1)C[C@H](NC(=O)[C@H]1[C@@H]3COC[C@@H]31)C(=O)N1CCC[C@H](N1)C(=O)OCC(C)(C)C2 | 9450 | > 120 | – | 2.1 | 151 | 1.7 | 0.3 | 0.4 | 43 | 29 | – | 60 | – | 69 | 23 (≈ 19.3 µg/mL) | 1.1 | 40 | 2.4 | 0.4 | 0.3 | logD [14]: 4.1 |
| CCn1c(-c2cc(N3CCN(C4CC4)CC3)cnc2[C@H](C)OC)c2c3cc(ccc31)-c1csc(n1)C[C@H](NC(=O)[C@H]1C[C@@H]1C)C(=O)N1CCC[C@H](N1)C(=O)OCC(C)(C)C2 | > 10000 | – | – | 13.9 | 277 | 4.9 | 1.3 | 3.4 | – | 50 | – | 396 | – | 117 | 5 (≈ 4.19 µg/mL) | 8.1 | 64 | 15.2 | – | 2.2 | logD [14]: 5.3 |
| CCn1c(-c2cc(N3CCN(C)CC3)cnc2[C@H](C)OC)c2c3cc(ccc31)-c1csc(n1)C[C@H](NC(=O)[C@H]1CCO1)C(=O)N1CCC[C@H](N1)C(=O)OCC(C)(C)C2 | 6950 | > 120 | – | 45.2 | 435 | 10.6 | 2 | 22.3 | 62 | 50 | – | – | – | 138 | 117 (≈ 95.1 µg/mL) | 14.2 | 77 | 50.1 | 7.9 | 0.4 | logD [14]: 4.3 |
| CCn1c(-c2cccnc2[C@H](C)OC)c2c3cc(ccc31)-c1csc(n1)C[C@H](NC(=O)[C@H]1[C@@H]3COC[C@@H]31)C(=O)N1CCC[C@H](N1)C(=O)OCC(C)(C)C2 | > 10000 | 26 | 49 | 92 | 346 | 26 | 11 | 30 | 7.5 | 51 | 6.67 | 2420 | 126 | 139 | 15 (≈ 11.1 µg/mL) | 69 | 84 | 146 | – | 2.3 | – |
| CCn1c(-c2cccnc2[C@H](C)OC)c2c3cc(ccc31)-c1csc(n1)C[C@H](NC(=O)[C@H](C(C)C)N(C)C(=O)N(C)C)C(=O)N1CCC[C@H](N1)C(=O)OCC(C)(C)C2 | 5820 | 5 | 0.8 | – | 548 | 11 | 3 | 6 | 2.9 | 58 | 55 | 468 | 42 | 108 | 49 (≈ 39.9 µg/mL) | 18 | – | 42 | 26 | 0.94 | IC50 (ASPC1): 75 nM |
| CCn1c(-c2cccnc2[C@H](C)OC)c2c3cc(ccc31)-c1csc(n1)C[C@H](NC(=O)[C@H](C(C)C)N(C)C(=O)OC)C(=O)N1CCC[C@H](N1)C(=O)OCC(C)(C)C2 | 5420 | 11 | – | – | 3070 | 63 | 8 | 35 | 7.4 | 302 | – | 184 | – | 742 | < 2 | 28 | – | 326 | – | 0.08 | IC50 (ASPC1): 400 nM |
